Laboratory results published in patent US20120207763A1, “PYRROLOPYRIMIDINE COMPOUNDS AND THEIR USES” (ASTEX THERAPEUTICS LIMITED, priority 2006, published 2012).
Where two headings read alike, the source gives them in different places.

Assays:
Assay type in all cases: biochemical
[1] = target: CDK4/Cyclin-D1 kinase complex (Homo sapiens, UniProt P11802); assay: CDK4 ELISA based assay, Rb Ser780 phosphorylation
Source text: The compounds that inhibit the CDK4 kinase activity would inhibit the signal output of the assay.

[2] = target: CDK2/Cyclin-A kinase complex (Homo sapiens, UniProt P24941); assay: CDK2 IMAP fluorescence polarization assay; settings: Table E; read-out: CDK2cyA IMAP/IC50 [umol l − 1]
How it was run: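 Fluorescence polarization (IMAP) using purified active CDK2/Cyclin-A complex with a TAMRA-tagged Histone H1-derived peptide substrate; phosphorylated peptide bound by a metal-containing reagent raises polarization. Inhibition read as reduced fluorescence polarization signal.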

[3] = target: CDK4 (Homo sapiens, UniProt P11802); assay: CDK4 HTRF assay; settings: Table E; read-out: CDK4 HTRF/IC50 [umol l − 1]
CDK4, sequence (P11802 whole entry): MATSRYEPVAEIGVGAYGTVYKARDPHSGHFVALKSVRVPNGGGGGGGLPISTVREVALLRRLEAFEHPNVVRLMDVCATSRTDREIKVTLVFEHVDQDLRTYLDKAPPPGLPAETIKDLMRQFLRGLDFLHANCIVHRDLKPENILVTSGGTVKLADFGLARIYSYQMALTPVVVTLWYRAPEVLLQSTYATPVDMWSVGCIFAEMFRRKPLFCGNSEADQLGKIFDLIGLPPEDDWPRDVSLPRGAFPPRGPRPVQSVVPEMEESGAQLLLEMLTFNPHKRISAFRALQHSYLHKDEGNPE
CDK4, sequence (P24385 whole entry partner): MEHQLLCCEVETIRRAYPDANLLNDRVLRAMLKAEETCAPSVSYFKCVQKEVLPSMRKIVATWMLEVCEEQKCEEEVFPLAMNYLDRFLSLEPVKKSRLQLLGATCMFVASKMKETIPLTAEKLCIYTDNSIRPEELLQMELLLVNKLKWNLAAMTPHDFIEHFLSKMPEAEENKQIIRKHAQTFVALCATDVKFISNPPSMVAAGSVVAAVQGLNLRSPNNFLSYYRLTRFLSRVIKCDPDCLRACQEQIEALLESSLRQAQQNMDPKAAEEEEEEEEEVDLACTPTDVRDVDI

[4] = target: hCDK1/B (Homo sapiens, UniProt P06493); assay: hCDK1/B assay; settings: Table E; read-out: hCDK1/B/IC50 [umol l − 1]
hCDK1/B, sequence (P06493 whole entry): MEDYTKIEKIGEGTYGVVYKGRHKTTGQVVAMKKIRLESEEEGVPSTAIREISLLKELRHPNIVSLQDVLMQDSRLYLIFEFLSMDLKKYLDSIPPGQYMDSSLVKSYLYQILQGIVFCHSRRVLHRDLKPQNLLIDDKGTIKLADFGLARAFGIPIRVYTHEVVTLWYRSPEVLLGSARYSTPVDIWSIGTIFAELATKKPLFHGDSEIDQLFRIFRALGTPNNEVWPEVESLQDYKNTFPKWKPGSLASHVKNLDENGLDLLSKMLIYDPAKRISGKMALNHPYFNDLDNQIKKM
hCDK1/B, sequence (P14635 whole entry partner): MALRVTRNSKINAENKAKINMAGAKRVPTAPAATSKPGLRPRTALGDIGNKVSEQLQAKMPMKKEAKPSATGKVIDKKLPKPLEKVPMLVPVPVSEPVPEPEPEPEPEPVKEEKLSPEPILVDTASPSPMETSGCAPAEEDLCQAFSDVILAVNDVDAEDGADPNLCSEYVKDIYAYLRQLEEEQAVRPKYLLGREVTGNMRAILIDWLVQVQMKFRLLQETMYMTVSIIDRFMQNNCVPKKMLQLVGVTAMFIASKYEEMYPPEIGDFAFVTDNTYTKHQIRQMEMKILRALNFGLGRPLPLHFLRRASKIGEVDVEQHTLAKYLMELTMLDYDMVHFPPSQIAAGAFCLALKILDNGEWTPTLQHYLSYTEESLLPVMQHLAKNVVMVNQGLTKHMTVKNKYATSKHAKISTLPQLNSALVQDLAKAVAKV

[5] = Table E, read-out: CDK4 ELISA assay IC50 [umol l−]

CDK4/Cyclin-D1 kinase complex, sequence (P11802 whole entry): as the sequence (P11802 whole entry) above
CDK4/Cyclin-D1 kinase complex, sequence (P24385 whole entry partner): as the sequence (P24385 whole entry partner) above

| SMILES | IC50 ([1]; Table C, read-out: CDK4 IC50) [µM] | IC50 [1, 5] [µM] | IC50 [2] [µM] | IC50 [3] [nM] | IC50 [4] [µM] |
| --- | --- | --- | --- | --- | --- |
| CCC(CC)N1C(=O)Cc2cnc(Nc3ccc(N4CCNCC4)cc3)nc21 | < 10 | – | – | – | – |
| Cc1cn(C2CCCC2)c2nc(Nc3ccc(N4CCCCC4)nc3)ncc12 [Example 284] | – | – | > 15 | > 10000 | > 15 |
| CCC(CC)N1C(=O)C(C)(C)c2cnc(Nc3ccc(N4CCN(C(=O)OC(C)(C)C)CC4)cc3)nc21 | > 10 | – | – | – | – |
| CCC(CC)n1c(C(=O)Nc2cccc(C(F)(F)F)c2)cc2cnc(Nc3ccc(N4CCNCC4)cc3)nc21 [Example 350] | – | – | > 15 | < 1000 | > 10 |
| CCC(CC)n1c(C(=O)NC)cc2cnc(Nc3ccc(N4CCNCC4)cc3)nc21 [Example 346] | – | – | < 10 | < 1000 | < 10 |
| CCC(CC)n1cc(C)c2cnc(Nc3ccc(C(=O)NC4CCCC4)cc3)nc21 [Example 319] | – | > 10 | – | – | – |
| CCC(CC)n1c(C(=O)Nc2ccc(OC)cc2)cc2cnc(Nc3ccc(N4CCNCC4)cc3)nc21 [Example 347] | – | – | > 10 | < 1000 | > 10 |
| Cc1nnc(-c2c(C)c3cnc(Nc4ccc(N5CCNCC5)cn4)nc3n2C2CCCC2)o1 [Example 386, [7-Cyclopentyl-5-methyl-6-(5-methyl-[1,3,4]oxadiazol-2-yl)-7H-pyrrolo[2,3d]pyrimidin-2-yl]-(5-piperazin-1-yl-pyridin-2-yl)-amine] | – | – | < 10 | < 1000 | < 10 |
| OC1CCC(n2ccc3cnc(Nc4ccc(N5CCNCC5)cc4)nc32)C1 (stereo not shown) [Example 247] | – | – | < 1 | < 1000 | < 1 |
| Cc1c(C#N)n(C2CCCC2)c2nc(Nc3ccc(N4CCC(N(C)C)CC4)cc3)ncc12 [Example 395] | – | – | < 1 | < 1000 | < 1 |
| CCC(CC)n1c(COC)cc2cnc(Nc3ccc(C(=O)NC4CCCC4)cc3)nc21 [Example 380] | – | > 10 | – | – | – |
| CCC(CC)n1c(C(=O)Nc2ccc(C)cc2)cc2cnc(Nc3ccc(N4CCNCC4)cc3)nc21 [Example 348] | – | – | > 15 | < 1000 | > 15 |
| Cc1c(C(N)=O)n(C2CCCC2)c2nc(Nc3ccc(N4CCNCC4)cn3)ncc12 [Example 391] | – | – | > 10 | < 1000 | > 10 |
| CCC(CC)n1c(C(=O)Nc2ccc(C(F)(F)F)cc2)cc2cnc(Nc3ccc(N4CCNCC4)cc3)nc21 [Example 359] | – | – | < 10 | < 1000 | < 10 |
| CCC(CC)n1ccc2cnc(NC3CC3)nc21 [Example 218] | – | > 10 | – | – | – |
| Cc1cn(C2CCCC2)c2nc(NN3CCN(C)CC3)ncc12 [Example 306] | – | – | > 10 | > 10000 | > 10 |
| Cc1cn(C2CCCC2)c2nc(Nc3ccc(N4CCOCC4)cc3)ncc12 [Example 305] | – | – | < 10 | > 10000 | < 10 |
| Cc1c(C#N)n(C2CCCC2)c2nc(Nc3ccc(N4CCNCC4)cn3)ncc12 [Example 393] | – | – | < 10 | < 1000 | < 10 |
| Cc1noc(-c2c(C)c3cnc(Nc4ccc(N5CCNCC5)cn4)nc3n2C2CCCC2)n1 [Example 407] | – | – | < 10 | < 1000 | < 10 |
| CC1CCC(n2ccc3cnc(Nc4ccc(N5CCNCC5)cc4)nc32)C1 (stereo not shown) [Example 239] | – | – | < 10 | < 1000 | < 1 |
| Cc1cn(C2CCCC2)c2nc(Nc3ccncn3)ncc12 [Example 304] | – | – | > 10 | > 10000 | > 10 |
| CCC(CC)n1c(C(=O)N(C)C)cc2cnc(Nc3ccc(CN4CCN(C(=O)OC(C)(C)C)CC4)cc3)nc21 [Example 465] | – | – | < 10 | < 1000 | < 10 |
| CCC(CC)n1c(CNCCc2cc3ccccc3[nH]2)cc2cnc(Nc3ccc(N4CCN(C(C)=O)CC4)cc3)nc21 [Example 368] | – | – | < 1 | < 1000 | < 10 |
| Cc1cn(C2CCCC2)c2nc(Nc3ccc(CCN4CCOCC4)cc3)ncc12 [Example 291] | – | – | > 10 | < 1000 | < 10 |
| CCC(CC)n1c(C(=O)Nc2cc[nH]n2)cc2cnc(Nc3ccc(N4CCNCC4)cc3)nc21 [Example 356] | – | – | < 10 | < 1000 | < 10 |
| Cc1cn(-c2c[nH]cn2)c2nc(Nc3ccc(N4CCNCC4)cn3)ncc12 [Example 324] | – | – | > 10 | < 1000 | > 10 |
| CCC(CC)n1c(C(=O)Nc2ccccn2)cc2cnc(Nc3ccc(N4CCNCC4)cc3)nc21 [Example 351] | – | – | < 10 | < 1000 | < 10 |

Next, values leading:

| IC50 ([1]; Table C, read-out: CDK4 IC50) [µM] | IC50 [1, 5] [µM] | IC50 [2] [µM] | IC50 [3] [nM] | IC50 [4] [µM] | SMILES |
| --- | --- | --- | --- | --- | --- |
| – | > 10 | – | – | – | CCC(CC)n1ccc2cnc(Nc3ccc(C4CCCN(C(=O)CC#N)C4)cc3)nc21 (stereo not shown) [Example 215] |
| – | – | < 1 | < 1000 | < 1 | OC[C@@H]1CCC(n2ccc3cnc(Nc4ccc(N5CCNCC5)cc4)nc32)C1 (stereo partly shown) [Example 250] |
| – | – | < 1 | < 1000 | < 1 | Cc1c(-c2cnco2)n(C2CCCC2)c2nc(Nc3ccc(CN4CCNCC4)cc3)ncc12 [Example 402] |
| – | – | < 1 | < 1000 | < 1 | Cc1c(-c2cnco2)n(C2CCCCCC2)c2nc(Nc3ccc(N4CCNCC4)cn3)ncc12 [Example 400] |
| – | > 10 | – | – | – | CCC(CC)n1cc(C(=O)OC)c2cnc(Nc3ccc(N4CCNCC4)cc3)nc21 [Example 429] |
| – | > 10 | – | – | – | CCC(CC)n1ccc2cnc(Nc3ccc(C(=O)NC4CCCC4)cc3)nc21 [Example 217] |
| – | – | < 1 | < 1000 | < 10 | Cc1cn(C2CCC(O)C2)c2nc(Nc3ccc(CN4CCOCC4)cc3)ncc12 (stereo not shown) [Example 315] |
| – | – | < 10 | < 1000 | < 10 | Cc1cn(C2CCCC2)c2nc(Nc3ccc(CN4CCNCC4)cc3)ncc12 [Example 314] |
| – | > 10 | – | – | – | CCC(CC)n1cc(C(=O)OC)c2cnc(Nc3ccc(N4CCN(C(C)=O)CC4)cc3)nc21 [Example 428] |
| – | – | > 10 | < 1000 | < 10 | CN(C)C(=O)c1cc2cnc(Nc3ccc(C4CCNCC4)cc3)nc2n1C1CCCC1 [Example 341] |
| – | – | > 10 | < 1000 | > 10 | Cc1n[nH]c(-c2c(C)c3cnc(Nc4ccc(N5CCNCC5)cn4)nc3n2C2CCCC2)n1 [Example 406] |
| – | – | < 10 | < 1000 | < 10 | CN(C)C(=O)c1cc2cnc(Nc3ccc(N4CCN(C(=O)OC(C)(C)C)CC4)cc3)nc2n1C1CCCC1 [Example 463] |
| – | – | > 10 | < 1000 | > 15 | Cc1c(C#N)n(C2CCCC2)c2nc(Nc3ccc(N4CCC(N(C)C)CC4)cn3)ncc12 [Example 394] |
| – | – | > 10 | < 1000 | < 10 | CCC(CC)n1c(C(=O)Nc2cccnc2)cc2cnc(Nc3ccc(N4CCNCC4)cc3)nc21 [Example 352] |
| – | – | < 10 | < 1000 | > 10 | CC(=O)c1c(C)c2cnc(Nc3ccc(N4CCNCC4)cn3)nc2n1C1CCCCCC1 [Example 389] |
| < 10 | – | – | – | – | Cc1cn(C2CCCC2)c2nc(Nc3ccc(N4CCNCC4)cc3)ncc12 [drawing 150] |

| IC50 ([1]; Table C, read-out: CDK4 IC50) [µM] | IC50 [1, 5] [µM] | IC50 [2] [µM] | IC50 [3] [nM] | IC50 [4] [µM] | SMILES |
| --- | --- | --- | --- | --- | --- |
| – | – | < 10 | < 1000 | < 10 | Cc1cn(C2CCCC2)c2nc(Nc3ccc(CN4CCNC(=O)C4)cc3)ncc12 [Example 290] |
| – | – | < 10 | < 1000 | < 10 | CCC(CC)n1c(C(=O)N(C)C)cc2cnc(Nc3ccc(CN4CCNCC4)cc3)nc21 [Example 342] |
| – | – | < 10 | < 1000 | < 10 | Cc1cn(C2CCCC2)c2nc(Nc3ccc4[nH]c(=O)[nH]c4c3)ncc12 [Example 279] |
| – | – | > 15 | > 10000 | > 15 | CN(C)C(=O)c1cc2cnc(NCc3ccc(N4CCN(C(=O)OC(C)(C)C)CC4)cc3)nc2n1C1CCCC1 [Example 468] |
| – | – | < 1 | < 1000 | < 1 | CCC(C)n1c(C#N)c(C)c2cnc(Nc3ccc(N4CCC(N(C)C)CC4)cc3)nc21 (stereo not shown) [Example 396] |
| – | – | < 1 | < 1000 | < 1 | Cc1c(-c2cnco2)n(C2CCCC2)c2nc(Nc3ccc(CN4CCOCC4)cc3)ncc12 [Example 401] |
| < 10 | – | – | – | – | CCC(CC)N1C(=O)C(C)(C)c2cnc(Nc3ccc(N4CCNCC4)cc3)nc21 [drawing 162] |
| – | > 10 | – | – | – | CCC(CC)n1ccc2cnc(NC3CCCC3)nc21 [Example 210] |
| – | – | < 10 | < 1000 | < 10 | CN(C)C(=O)c1cc2cnc(Nc3ccc(CN4CCOCC4)cc3)nc2n1C1CCCC1 [Example 340] |
| < 10 | – | – | – | – | CC1(C)C(=O)N(C2CCCC2)c2nc(Nc3ccc(N4CCNCC4)cn3)ncc21 |
| – | – | < 10 | < 1000 | < 10 | Cc1cn(C2CCCC2)c2nc(Nc3ccc(CN4CCOCC4)cc3)ncc12 [Example 313] |
| – | – | > 10 | > 10000 | > 10 | CCN(CC)c1ccc(Nc2ncc3c(C)cn(C4CCCC4)c3n2)cc1 [Example 457] |
| – | – | > 10 | < 1000 | > 10 | CN(C)C(=O)c1cc2cnc(Nc3ccc(CN4CCNCC4)cc3)nc2n1C1CCCC1 [Example 339] |
| – | – | > 15 | < 1000 | > 15 | CCC(CC)n1c(C(=O)Nc2cccc(C(C)(C)C)c2)cc2cnc(Nc3ccc(N4CCNCC4)cc3)nc21 [Example 358] |
| – | – | < 10 | < 1000 | < 10 | Cc1c(-c2cnco2)n(C2CCCC2)c2nc(Nc3ccc(CN4CCNCC4)cn3)ncc12 [Example 403] |
